Tests used:
neutrophils = assay: Cytokine production by PEP005-treated human neutrophils; assay type: cell-based; settings: 6 h, supernatant
Method: Cytokine production by PEP005-treated human cells Confluent cultures of Me10538 cells, keratinocytes, fibroblasts and neutrophils were incubated for 6 h in the absence or presence of PEP005 (1-100 ng/ml). The supernatants were harvested and analyzed for the presence of the following cytokines; TNF-α, IL-6 and IL-8 using a multiplex detection kit (Biosource International, Nivelles, Belgium). Units of detected proteins are pg/ml.

epidermal keratinocytes = assay: MTT cell viability and proliferation, epidermal keratinocytes; assay type: cell-based, human; settings: 100 μg/ml PEP005
Method: Human, adult, epidermal keratinocytes, were purchased cryopreserved from Cascade Biologics Inc., Nottinghamshire, U.K. These cells (>500,000 viable cells/vial) were tested to be >70% viable, with the capacity to proliferate for at least 16 population doublings. The epidermal keratinocytes were cultured in serum-free, EpiLife® Medium (Cascade Biologics Inc.), supplemented with antibiotics (100 U/ml penicillin G sodium, […] streptomycin sulphate and 0.25 μg/ml amphotericin B) and EpiLife® Defined Growth Supplement (EDGS, consisting of purified bovine serum albumin, purified bovine transferring, hydrocortisone, recombinant human insulin-like growth factor type-1, prostaglandin E2 and recombinant human epidermal growth factor, Cascade Biologics Inc.). Epidermal keratinocytes cultures were maintained at 37° C., in a 5% CO2/95% air atmosphere, with the culture medium being changed every 2-3 days. Epidermal keratinocytes were used between 4-6 passages, for all experiments.
Prior to use, the PEP005/DMSO stock solution was removed from 4° C. storage and warmed to room temperature. […]

[1] = Storage stability of PEP005 preparations; assay type: physicochemical; settings: stored at 4° C.
Method: PEP005 was supplied by Peplin Limited, Brisbane, Australia, in 20 mg batches and stored at 4° C. When required, the PEP005 was solubilized in dimethyl sulphoxide (DMSO, >99.9%, Sigma Chemical Co., Dorset, U.K.), at a concentration of 10 mg/ml.
PEP005 was supplied by Peplin Limited, Brisbane, Australia as 0.01% (100 μg/ml), 0.028% (280 μg/ml) and 0.05% (500 μg/ml) preparations in a DMSO/isopropanol-based gel. PEP005-free, DMSO/isopropanol-based carrier gel was also supplied to serve as a vehicle control.

C/C=C(/C)C(=O)O[C@H]1C(C)=C[C@]23C(=O)[C@@H](C=C(CO)[C@@H](O)[C@]12O)[C@H]1[C@@H](C[C@H]3C)C1(C)C [PEP005, ingenol-3-angelate]
IL-8 (neutrophils; PEP005 1 ng/ml): 7089 ± 1293 pg/mL
IL-8 (neutrophils; PEP005 10 ng/ml): 2241 ± 684 pg/mL
IL-8 (neutrophils; PEP005 100 ng/ml): 617 ± 52 pg/mL
keratinocyte cell viability/proliferation (MTT) (epidermal keratinocytes): cytotoxic effect
stability of PEP005 gels ([1]; 0.01%, 0.028% and 0.05% preparations in DMSO/isopropanol-based gel): stable for several months
stability of PEP005/DMSO stock solution ([1]; 10 mg/ml in DMSO): stable for several months

Source: patent publication US20090215884A1, “METHOD FOR WOUND HEALING” (priority 2005, published 2009)
